Data as given in article PMC3916416, “Recombinant Human Parathyroid Hormone Related Protein 1-34 and 1-84 and Their Roles in Osteoporosis Treatment” (PLoS ONE, 2014).

What was measured:
[1] = tested on: primary bone marrow cells (BMC); experiment: Primary bone marrow cell culture, cytochemical colony (CFU-f) staining; type: cell-based, rat; settings: 10^-7 M on day 0, 18-day primary BMC cultures, compared with control cultures; triplicate determinations, three experiments
Experimental: Tibiae and femurs of 200-g male Wistar rats were removed under aseptic conditions, and bone marrow cells (BMC) were flushed out with Dulbecco's modified Eagle's minimal essential medium containing 10% fetal calf serum, 50 µg/ml ascorbic acid, 10 mM β-glycerophosphate, and 10^−8 M dexamethasone. Cells were dispersed by repeated pipetting, and a single-cell suspension was achieved by forcefully expelling the cells through a 22-gauge syringe needle. 10^6 total bone marrow cells were cultured in 36-cm^2 Petri dishes in 5 ml of the above-mentioned medium. All the dishes were assigned to three different groups. Each of the group treated with vehicle (Control), 10^−7 M hPTHrP1-34 or 10^−7 M hPTHrP1-84. The medium was changed every 4 days. The non-adherent cells containing hematopoietic elements were removed by pipetting gently when the medium was changed for the first time. Only monocytic cells remained. Cultures were maintained for 12–18 days. At the end of the culture period cells were stained cytochemically or RNA was extracted from these cells for RT-PCR as described below. The cells from 18-day primary BMC cultures were washed with PBS and fixed by the addition of cold ethanol. […] The numbers of colonies were counted macroscopically by hand. […]

[2] = tested on: Cbfa-1, ALP, Col I, OCN mRNA in primary BMC; experiment: Real-time RT-PCR of osteogenic genes in 14-day primary BMC cultures; type: cell-based, rat; settings: 10^-7 M, ratio to GAPDH, compared with control cultures, three trials
Experimental: Tibiae and femurs of 200-g male Wistar rats were removed under aseptic conditions, and bone marrow cells (BMC) were flushed out with Dulbecco's modified Eagle's minimal essential medium containing 10% fetal calf serum, 50 µg/ml ascorbic acid, 10 mM β-glycerophosphate, and 10^−8 M dexamethasone. Cells were dispersed by repeated pipetting, and a single-cell suspension was achieved by forcefully expelling the cells through a 22-gauge syringe needle. 10^6 total bone marrow cells were cultured in 36-cm^2 Petri dishes in 5 ml of the above-mentioned medium. All the dishes were assigned to three different groups. Each of the group treated with vehicle (Control), 10^−7 M hPTHrP1-34 or 10^−7 M hPTHrP1-84. The medium was changed every 4 days. The non-adherent cells containing hematopoietic elements were removed by pipetting gently when the medium was changed for the first time. Only monocytic cells remained. Cultures were maintained for 12–18 days. At the end of the culture period cells were stained cytochemically or RNA was extracted from these cells for RT-PCR as described below.
RNA was isolated from 14-day cultured cells using Trizol reagent (Invitrogen) according to the manufacturer's protocol. Femurs were isolated and weighted. Homogenize tissue samples in 1 ml of TRIzol reagent per 50–100 mg of tissue using mortar and pestle with liquid nitrogen. […]

[3] = Serum calcium, phosphorus and ALP in OVX mice; type: in vivo, mouse; settings: 10 nmol/kg s.c. daily for 4 weeks, versus vehicle-treated OVX mice, n = 6
Experimental: (§1) Twenty four female C57BL/6J mice, 8 weeks age, were assigned to four different groups, with six mice per group. All mice were anesthetized with chloral hydrate (0.4 ml/100 g body weight) and subjected to surgery on day 0. Sham surgery was performed on the Sham group (Sham) by identifying the bilateral ovaries and ovariectomy (OVX) was performed on the other groups by removing the bilateral ovaries. After surgery, all mice were maintained in a virus- and parasite-free barrier facility and exposed to a 12-h/12-h light/dark cycle under standard conditions in the Medical Experimental Animal Center of Nanjing Medical University for 9 weeks. HPTHrP1–34 was subcutaneously administered at a dose of 10 nmol/kg (40 µg/kg) body weight everyday for the last 4 weeks. HPTHrP1–84 was subcutaneously administered at a dose of 10 nmol/kg (100 µg/kg) body weight everyday for the last 4 weeks. Each of the mice received vehicle (vehicle-treated sham-operated mice and vehicle-treated OVX mice), hPTHrP1-34 (hPTHrP1-34-treated OVX mice) or hPTHrP1-84 (hPTHrP1-84-treated OVX mice). […]
Serum calcium, phosphorus and ALP were determined at 4 weeks after the administration of drugs by autoanalyzer (Beckman Synchron 67; Beckman Instruments).

[4] = tested on: renal calcium transporters (calbindin-D28K, calbindin-D9K, NCX1, TRPV5); experiment: Western blot of renal calcium transporters in OVX mice; type: in vivo, mouse; settings: 10 nmol/kg s.c. daily for 4 weeks, relative to vehicle-treated sham-operated mice, n = 6
Experimental: as §1
Purified hPTHrP1-34 and 1-84 and proteins extracted from kidney were quantitated by a kit (Bio-Rad, Mississauga, Ontario, Canada). […] Bands were visualized using ECL chemiluminescence (Amersham) and quantitated by Scion Image Beta 4.02 (Scion Corporation, NIH).

[5] = tested on: OVX mice (osteoporosis model); experiment: Bone volume of vertebrae in OVX mice (radiography, micro-CT, histology); type: in vivo, mouse; settings: 10 nmol/kg s.c. daily for 4 weeks
Experimental: (§2) Twenty four female C57BL/6J mice, 8 weeks age, were assigned to four different groups, with six mice per group. All mice were anesthetized with chloral hydrate (0.4 ml/100 g body weight) and subjected to surgery on day 0. Sham surgery was performed on the Sham group (Sham) by identifying the bilateral ovaries and ovariectomy (OVX) was performed on the other groups by removing the bilateral ovaries. After surgery, all mice were maintained in a virus- and parasite-free barrier facility and exposed to a 12-h/12-h light/dark cycle under standard conditions in the Medical Experimental Animal Center of Nanjing Medical University for 9 weeks. HPTHrP1–34 was subcutaneously administered at a dose of 10 nmol/kg (40 µg/kg) body weight everyday for the last 4 weeks. HPTHrP1–84 was subcutaneously administered at a dose of 10 nmol/kg (100 µg/kg) body weight everyday for the last 4 weeks. Each of the mice received vehicle (vehicle-treated sham-operated mice and vehicle-treated OVX mice), hPTHrP1-34 (hPTHrP1-34-treated OVX mice) or hPTHrP1-84 (hPTHrP1-84-treated OVX mice). At the end of experiments, all mice were sacrificed by exsanguination under chloral hydrate anesthesia and blood were collected for serum calcium, phosphorus and ALP analyses, bones and kidneys were then removed for the analyses described below.
Thoracic vertebrae were removed and dissected free of soft tissue. […]
Thoracic vertebrae were fixed overnight in 70% ethanol and analyzed by micro-CT with a SkyScan 1072 scanner and associated analysis software (SkyScan, Antwerp, Belgium) as described. […]
Total collagen was detected in paraffin sections using a modified method of Lopez-De Leon and Rojkind. […]
(§3) After HE staining or histochemical staining of sections from six mice of each genotype, images of fields were photographed with a Sony digital camera. All images were digitally recorded using a rectangular template, and recordings were processed and analyzed using Northern Eclipse image analysis software as described, [26], [28].

[6] = tested on: OVX mice (osteoporosis model); experiment: Osteoblastic bone formation parameters of vertebrae in OVX mice; type: in vivo, mouse; settings: 10 nmol/kg s.c. daily for 4 weeks, compared to vehicle-treated sham-operated mice, n = 6
Experimental: as §2
Lumbar vertebrae or tibiae were removed and fixed in PLP fixative (2% paraformaldehyde containing 0.075 M lysine and 0.01 M sodium periodate solution) overnight at 4°C and processed histologically as described. Lumbar vertebrae were decalcified in ethylene-diamine tetraacetic acid (EDTA) glycerol solution for 5–7 days at 4°C. Decalcified samples were dehydrated and embedded in paraffin after which 5 µm sections were cut on a rotary microtome. […]
Double calcein labeling was performed by intraperitoneal injection of mice with 10 µg calcein/g body weight (C-0875, Sigma-Aldrich Corp., St. Louis, MO) at 10 and 3 day before death. […] Serial sections were cut, and the freshly cut surface of each section was viewed and imaged using fluorescence microscopy. The double calcein-labeled width of bone was measured using Northern Eclipse image analysis software version 6.0 (Empix Imaging, Inc., Mississauga, Canada), and the mineral apposition rate (MAR) was calculated as the interlabel width/labeling period.
as §3

[7] = tested on: Cbfa1, ALP, Col I, OCN, RANKL, OPG mRNA in long bone; experiment: Real-time RT-PCR of long bone extracts of OVX mice; type: in vivo, mouse; settings: 10 nmol/kg s.c. daily for 4 weeks, n = 6
Experimental: as §2
RNA was isolated from 14-day cultured cells using Trizol reagent (Invitrogen) according to the manufacturer's protocol. Femurs were isolated and weighted. Homogenize tissue samples in 1 ml of TRIzol reagent per 50–100 mg of tissue using mortar and pestle with liquid nitrogen. After homogenization, remove insoluble material from the homogenate by centrifuging at 12,000 RPM for 10 min at 4°C. Transfer the top layer solution into a new tube. RNA of this solution was precipitated with isopropanol, washed with 75% ethanol and dissolved with DEPC water. Reverse transcription reactions were performed using the SuperScript First-Strand Synthesis System (Invitrogen) as previously described. […]

[8] = tested on: OVX mice (osteoporosis model); experiment: Osteoclastic bone resorption (TRAP staining) in OVX mice; type: in vivo, mouse; settings: 10 nmol/kg s.c. daily for 4 weeks, vertebrae, compared with vehicle-treated OVX mice, n = 6
Experimental: as §1, §3

[9] = Serum PTHrP analyses (ELISA) after subcutaneous injection; type: in vivo, mouse; settings: OVX mice, 10 nmol/kg s.c.
Experimental: The OVX mice were injected with vehicle or 10 nmol/kg hPTHrP1-34 or 10 nmol/kg hPTHrP1-84 subcutaneously. Subsequently, blood samples were drawn at 15 and 30 minutes, 1, 2, 4 and 6 hours after the injections. Serum concentrations of hPTHrP1-34 or hPTHrP1-84 were measured by enzyme linked immunosorbent assay (ELISA) that used Phoenix Pharmaceuticals PTHrP(1-34)- EIA Kit (Phoenix Pharmaceuticals, USA). Procedures were performed according to the instructions of the kit.

[10] = tested on: placental calcium transport; settings: cited from earlier work
Source text: It supports the concept that the mid-molecule region of PTHrP is functionally important in placental calcium transport. […] However, it is unclear whether there are some differences between PTHrP1-34 and 1-84 on renal calcium reabsorption and on bone formation. To answer this que ...

[11] = vertebrae, micro-CT and histology, compared to vehicle-treated OVX mice (hPTHrP1-84 also to hPTHrP1-34-treated), n = 6
[12] = compared to vehicle-treated sham-operated mice

## hPTHrP1-34: recombinant human parathyroid hormone related protein 1-34, expressed as GST fusion in E. coli BL21 and cleaved by thrombin
[1]
  colony formation and osteogenic cell differentiation and mineralization: significant increase
[2]
  gene expression levels of Cbfa-1, ALP, type I collagen (Col I) and osteocalcin (OCN): upregulated significantly
[3]
  Serum mineral ion and ALP levels: no significant differences
[4]
  protein levels of calbindin-D28K, calbindin-D9K, NCX1 and TRPV5 in the kidney: down-regulated
[5]; radiography, compared to vehicle-treated sham-operated mice
  radiolucency in vertebrae: increased
[5]; [11]
  cortical thickness: not altered significantly
  trabecular bone volume: not altered significantly
[6]
  ALP positive area: increased
  MAR (mineral apposition rate): decreased
  osteoblast number: increased
  osteoid volume: not altered significantly
[7]; among vehicle-treated, hPTHrP1-34-treated and hPTHrP 1-84-treated OVX mice
  ratios of RANKL/OPG mRNA levels: no significant differences
[7]; [12]
  osteoblastic gene expression levels of Cbfa1, ALP: slightly up-regulated
  ratios of RANKL/OPG mRNA levels: increased significantly
[8]
  TRAP positive osteoclast number: did not further increase
  TRAP positive osteoclast surface: did not further increase
[9]; ELISA, read from the figure (Fig. 6e), approximate
  circulating t1/2: approximately 45 mins
[9]; ELISA, sampling 15 and 30 min, 1, 2, 4, 6 h, n = 6
  time at which plasma PTHrP levels declined to baseline levels: 2 h
[9]; single injection, PTHrP(1-34) EIA kit (ELISA), mean ± SEM, n = 6
  plasma PTHrP levels at 15 min after the administration: 9 ± 0.7 pM

## synthetic PTHrP1-34: synthetic PTHrP1-34 of the literature study on placental calcium transfer (ref 18)
[10]
  placental calcium transfer: no such effect
